Results taken from patent publication US10351568B2, “Compositions and methods for enhancing proteasome activity” (President and Fellows of Harvard College, priority 2010, dated 2019).

Legend:
mCherry-NBR1 = mCherry-NBR1 immunofluorescence in wild-type MEFs; assay type: cell-based; conditions: 200 μM, 6 hr
[1] = target: T1, Usp14/26S proteasome complexes (Homo sapiens, UniProt P54578); experiment: Ub-AMC hydrolysis by VS-proteasomes reconstituted with recombinant Usp14; assay type: biochemical
T1 construct: GST (N, cleaved yes); made in house; host or cells: E. coli Rosetta 2 (DE3) for Usp14
Protocol: Compounds were screened for Usp14/26S inhibition in 384-well low-volume plates in duplicate. Data processing was done by a robust Z-score method and each compound was plotted using Spotfire software. Compounds over the cut-off of Z>5 were mostly autofluorescent and were therefore not counted. To exclude quenching compounds that only affect AMC fluorescence, 312 primary hits were tested for quenching of AMC amine, and pure quenchers were scored as false-positives and excluded from further analysis (FIG. 8B).
The data plot of each experiment was fit into a four parameter logistic model (the Hill-slope model) based on guidelines from the NIH Chemical Genomics Center.

[2] = target: T2, Usp14 that had not been loaded onto a proteasome (Homo sapiens, UniProt P54578); experiment: Activity of Usp14 not complexed to the proteasome; assay type: biochemical
T2 construct: GST (N, cleaved yes); made in house; host or cells: E. coli Rosetta 2 (DE3)

[3] = tested on: eight deubiquitinating enzymes of human origin; experiment: Deubiquitinase selectivity panel (Ub-AMC hydrolysis); assay type: biochemical; conditions: 17 μM
[4] = target: T3, proteasome-bound form of Uch37 (Homo sapiens, UniProt Q9Y5K5); experiment: Ub-AMC hydrolysis by 26S proteasomes not treated with Ub-VS (lacking Usp14); assay type: biochemical
T3 construct: endogenous in cells

[5] = tested on: glial fibrillary acidic protein (GFAP); experiment: GFAP depletion in MEF cells (immunoblot); assay type: cell-based; conditions: MEF cells, 25, 50 or 100 μM IU1
Protocol: (§1) Other proteins that have been implicated in proteotoxic mechanisms were also tested.

[6] = Cellular entry, release and stability of compound (LC/MS, UV absorption)
From the text: Cell lysates were collected and ethyl acetate extraction was used to prepare mass spectrometer samples.

[7] = target: T4, Usp14/proteasome complexes (Homo sapiens, UniProt P54578); experiment: Usp14 binding to purified proteasome (immunoblot); conditions: various concentrations of IU1
T4 construct: GST (N, cleaved yes); made in house; host or cells: E. coli Rosetta 2 (DE3) for Usp14
From the text: The asterisk (*) denotes a nonspecific signal generated by the anti-Usp14 antibody.

TDP-43 = TDP-43 depletion in MEF cells (immunoblot); assay type: cell-based; conditions: 75 μM IU1
Protocol: as §1

Usp14 = Usp14 (Homo sapiens, UniProt P54578); experiment: Mass spectrometry analysis of IU1 inhibited Usp14; assay type: binding
[8] = Hydrogen peroxide toxicity; assay type: cell-based; conditions: data not shown
Tau = Tau degradation in MEF cells (immunoblot, RT-PCR); assay type: cell-based
From the text: No effect was seen on Tau mRNA levels (FIG. 21B).

[9] = target: T5, Usp14-containing proteasomes (Homo sapiens, UniProt P54578); experiment: In vitro Ubn-ClnB degradation assay; assay type: biochemical
T5 construct: GST (N, cleaved yes); made in house; host or cells: E. coli Rosetta 2 (DE3) for Usp14
From the text: (§2) The effect of Usp14 on the degradation of ubiquitinated substrates was examined using an in vitro degradation assay using the ubiquitin-dependent proteasome substrate polyubiquitinated cyclin B (Ubn-ClnB).
It was next tested whether IU1 could serve as an enhancer of substrate degradation by the proteasome.

[10] = Compound concentration in serum-containing media / release, 293 cells; assay type: in vitro ADME; conditions: 1 hr to 48 hr
Protocol: The experiment was performed as in FIG. 42A.

oxidized proteins = experiment: Oxidized protein accumulation after menadione (DNPH immunoblot); assay type: cell-based; conditions: MEFs, 75 μM IU1 4 hours, then 63 μM menadione 45 minutes
From the text: Oxidized proteins form another class of proteasome substrates that play an important role in human health. Harmful oxidized proteins accumulate upon ageing and are implicated in a variety of age-related diseases and disorders (Stadtman (2006) Protein oxidation and aging. Free Radic. Res. 40, 1250-1258; Ahmed et al. (2007) Protein oxidative modifications and replicative senescence of WI-38 human embryonic fibroblasts. Ann. NY Acad. Sci., 1119, 88-96; Moskovitz et al. (2001). Methionine sulfoxide reductase (MsrA) is a regulator of antioxidant defense and lifespan in mammals. Proc. Nat. Acad. Sci. USA, […], 12920-12925.). Protein oxidation was induced by treating cells with menadione, and oxidized species were visualized using an antibody specific for protein carbonyls. […] The cells were lysed and lysates were incubated with DNPH and immunoblotted with anti-DNPH antibody to assay for oxidized proteins.

Isopeptidase T (IsoT) = Isopeptidase T (IsoT) (Homo sapiens, UniProt P45974); experiment: Isopeptidase T deubiquitinase activity; assay type: biochemical; conditions: 8 μM, 17 μM
ataxin-3 = experiment: Ataxin-3 depletion in MEF cells (immunoblot); assay type: cell-based; conditions: 50 or 100 μM IU1
Protocol: as §1

[11] = tested on: MEF, HEK293 and HeLa cells; experiment: MTT cell viability assay; assay type: cell-based; conditions: MTT after 6, 12, 24 or 48 hours
Protocol: (§3) Effects on cell viability became apparent at concentrations over 100 μM, well above the doses required to enhance the degradation of Tau, TDP-43, ataxin-3, and oxidized proteins (FIGS. 21-23).

MEF cells [12] = experiment: MTT cell survival upon menadione oxidative stress, MEF; assay type: cell-based
From the text: The effect on the IC50 for menadione is almost 4-fold.

MEF cells [13] = experiment: TUNEL apoptosis assay; assay type: cell-based; conditions: 100 μM IU1, 6 hr
Protocol: as §3

HEK293 cells = experiment: MTT cell survival upon menadione oxidative stress, HEK293; assay type: cell-based, human; conditions: 6 hr, menadione 4 hr
proteasome = experiment: Proteasome integrity by native PAGE of total cell extracts; assay type: cell-based; conditions: 100 μM IU1, 6-hr
From the text: RP2-CP and RP-CP indicate distinct forms of the 26S proteasome.

GFP-ODC = experiment: Degradation of ubiquitin-independent proteasome substrate in cells; assay type: cell-based
Protocol: Proteasome inhibitors (30 μM MG132, 10 μM PS-341) were treated 4 hr before lysis.
as §1

murine Psmb5 promoter = experiment: Psmb5 promoter luciferase reporter in MEFs; assay type: cell-based; conditions: wild-type and Usp14−/− MEFs, 25 or 50 μM, 8 hr
Protocol: For normalization of luciferase activity, a control experiment using the promoter-less pGL3 plasmid was performed. Values are mean±SD from three independent experiments. RLU, relative light units.

UbB, α6, α7 = experiment: Quantitative RT-PCR of ubiquitin and proteasome subunit genes in MEFs; assay type: cell-based; conditions: +/+ and Usp14−/− MEFs, graded doses, 6 hr
MEFs and 293 cells = experiment: Cell proliferation by real-time microscopy (confluency); assay type: cell-based
[14] = target: T4, Usp14/proteasome complexes; experiment: In vitro ubiquitin chain trimming assay with polyubiquitinated cyclin B; assay type: biochemical
Protocol: Immunoblot was performed using an antibody specific for human cyclin B (CCNB).
as §2
To separate chain trimming from substrate degradation, these assays were done in the presence of proteasome inhibitors. The effectiveness of the proteasome inhibitors is evidenced by the accumulation of unmodified cyclin B in the assay (FIG. 15).

Usp14, sequence (P54578 whole entry): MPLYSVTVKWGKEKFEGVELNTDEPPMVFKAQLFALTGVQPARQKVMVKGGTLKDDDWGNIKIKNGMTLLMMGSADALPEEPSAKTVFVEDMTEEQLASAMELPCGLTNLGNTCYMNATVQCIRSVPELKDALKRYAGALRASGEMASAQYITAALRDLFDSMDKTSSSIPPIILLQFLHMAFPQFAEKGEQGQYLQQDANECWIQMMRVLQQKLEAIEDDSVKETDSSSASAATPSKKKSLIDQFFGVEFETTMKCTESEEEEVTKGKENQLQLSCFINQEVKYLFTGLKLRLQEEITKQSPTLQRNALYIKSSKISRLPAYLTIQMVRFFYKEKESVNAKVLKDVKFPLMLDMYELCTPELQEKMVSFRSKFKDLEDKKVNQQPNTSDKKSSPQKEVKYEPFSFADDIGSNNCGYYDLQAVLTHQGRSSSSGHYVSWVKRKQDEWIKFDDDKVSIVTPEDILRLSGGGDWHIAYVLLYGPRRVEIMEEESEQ
T2 sequence (P54578 whole entry): as above
Isopeptidase T (IsoT), sequence (P45974 whole entry): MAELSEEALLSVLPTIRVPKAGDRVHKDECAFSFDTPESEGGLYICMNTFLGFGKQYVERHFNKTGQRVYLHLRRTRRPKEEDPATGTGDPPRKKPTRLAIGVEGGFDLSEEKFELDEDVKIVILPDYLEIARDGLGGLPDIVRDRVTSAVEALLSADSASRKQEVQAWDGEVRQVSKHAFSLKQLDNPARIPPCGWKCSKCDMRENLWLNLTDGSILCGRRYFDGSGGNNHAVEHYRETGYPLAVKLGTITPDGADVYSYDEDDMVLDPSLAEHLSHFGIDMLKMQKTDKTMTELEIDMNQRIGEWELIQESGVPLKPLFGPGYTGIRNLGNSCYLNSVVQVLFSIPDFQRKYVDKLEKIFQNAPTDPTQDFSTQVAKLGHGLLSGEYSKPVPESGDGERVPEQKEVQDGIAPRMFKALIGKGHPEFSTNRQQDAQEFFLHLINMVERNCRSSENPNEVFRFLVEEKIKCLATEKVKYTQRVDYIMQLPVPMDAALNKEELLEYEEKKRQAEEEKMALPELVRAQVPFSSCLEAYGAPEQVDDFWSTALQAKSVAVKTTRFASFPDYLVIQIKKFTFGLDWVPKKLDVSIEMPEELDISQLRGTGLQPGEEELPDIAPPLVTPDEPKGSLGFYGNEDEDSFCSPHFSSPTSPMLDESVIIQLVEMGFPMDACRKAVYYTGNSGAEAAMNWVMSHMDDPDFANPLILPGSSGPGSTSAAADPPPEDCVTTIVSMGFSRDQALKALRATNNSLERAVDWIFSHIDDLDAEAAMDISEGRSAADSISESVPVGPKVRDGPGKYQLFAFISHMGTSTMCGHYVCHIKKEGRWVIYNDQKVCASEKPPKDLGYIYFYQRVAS

CO/C1=C\C(C)=C\[C@@H](C)[C@@H](O)[C@@H](C)C/C(C)=C/C=C/[C@H](OC)[C@@H]([C@@H](C)[C@@H](O)[C@H](C)[C@@]2(O)C[C@@H](O)[C@H](C)[C@@H](C(C)C)O2)OC1=O [bafilomycin A1]
immunofluorescence signal of mCherry-NBR1 (mCherry-NBR1): significantly increased

Cc1cc(C(=O)CN2CCCC2)c(C)n1-c1ccc(F)cc1 [IU1, 1-[1-(4-fluorophenyl)-2,5-dimethlypyrrol-3-yl]-2-pyrrolidin-1-ylethanone]
lag period of inhibition ([1]; IU1 100 μM added 30 min after 1 μM Ub-AMC, 2.5 nM proteasome, 30 nM USP14): without a detectable lag period
reversibility of inhibition of Usp14 ([1]; activity after up to three ultrafiltration spins): rapidly reversible
inhibition of Usp14 deubiquitinase ([1]; proteasome-bound Usp14, Ub-AMC): potent inhibitor of proteasome-bound Usp14
inhibition of Usp14 not complexed to the proteasome [2]: failed to inhibit
inhibition of other tested deubiquitinating enzymes [3]: failed to significantly inhibit
specificity for USP14 versus Ub-AMC concentration ([3]; lower concentrations of Ub-AMC): observed independently of Ub-AMC concentration
inhibition of proteasome-bound Uch37 [4]: does not inhibit
GFAP level in cells [5]: similarly depleted
time to reach steady-state concentration within cells ([6]; 50 μM added to medium, MEFs): ≤ 1 h
steady-state concentration within cells ([6]; 50 μM added to medium, MEFs, LC/MS): ~19 µM
release of internalized compound from wild-type MEF cells ([6]; 50 μM for one hour, then fresh media): rapid release
concentration in serum-containing media of Usp14−/− MEF cells ([6]; 1 hr to 48 hr): comparable concentration
effect on Usp14 complexing with the proteasome [7]: did not antagonize Usp14 complexing with the proteasome
TDP-43 level in cells (TDP-43): similarly depleted
covalent IU1-Usp14 adducts (Usp14): failed to detect any covalent IU1-Usp14 adducts
hydrogen peroxide toxicity [8]: reduced the toxicity
Tau levels (Tau; MEF cells, 25 to 100 μM, 6 hours): reduced Tau levels at all concentrations tested
Tau mRNA levels (Tau; MEF cells, 25 to 100 μM, quantitative RT-PCR): No effect
dependence of Tau degradation stimulation on autophagy (Tau; wild-type MEF, 75 μM IU1 and/or BafA1, 6 hrs): not mediated by autophagy
degradation of Ub-cyclin B by Usp14-containing proteasomes ([9]; 34 μM IU1): stimulated the activity of Usp14-containing proteasomes
substrate degradation or chain trimming by proteasomes that lack Usp14 ([9]; 34 μM IU1): no effect
cyclin B degradation in the presence of USP14-CA ([9]; catalytically inactive USP14): does not affect cyclin B degradation
concentration in serum-containing media of HEK293 cells [10]: comparable concentration
accumulation of oxidized proteins (oxidized proteins): reduced
inhibition of Isopeptidase T (Isopeptidase T (IsoT)): lack of inhibition
ataxin-3 level in cells (ataxin-3): similarly depleted
concentration at which effects on cell viability became apparent [11]: over 100 μM
effect on cell survival upon oxidative stress (MEF cells [12]): show this effect as well
induction of apoptosis (MEF cells [13]): did not noticeably induce apoptosis
effect on the IC50 for menadione (HEK293 cells; IU1 50 uM): ~4 fold
menadione toxicity (HEK293 cells; compound 50 uM): reduced this toxicity substantially
integrity of proteasome (proteasome): does not affect the integrity of proteasome
degradation of GFP-ODC (GFP-ODC): little or no effect
transcription of Psmb5 gene (murine Psmb5 promoter): does not induce the transcription
transcription of UbB (UbB, α6, α7): does not induce the transcription
transcription of α6 (UbB, α6, α7): does not induce the transcription
transcription of α7 (UbB, α6, α7): does not induce the transcription
inhibition of cellular proliferation at 120 μM (MEFs and 293 cells; 120 μM): only a slight inhibition
inhibition of cellular proliferation at lower concentrations (MEFs and 293 cells; below 120 μM): no apparent inhibition
concentration effective at inhibition of chain trimming ([14]; proteasome purified and assayed in presence of ADP): approximately 5 μM
chain trimming, Usp14/proteasome complexes ([14]; with Usp14, presence of proteasome inhibitors): reduced the chain trimming to a level similar to that of the proteasome complexes that lacked Usp14
release of ubiquitin chains from cyclin B, proteasomes that lack Usp14 ([14]; without Usp14, presence of proteasome inhibitors): little or no effect
